In PubChem BioAssay (NCI):
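Results reflect a 48-hour exposure of cells in 96-well plates to compound at five concentrations. TGI marks complete inhibition of growth.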

How the values were obtained:
Experiment in all cases: NCI tumour cell line growth inhibition, 48 h
A498 renal = test system: A498 renal
A549 NSCLC = test system: A549 NSCLC
COLO 205 colon = test system: COLO 205 colon
HS 578T breast = test system: HS 578T breast
LOX IMVI melanoma = test system: LOX IMVI melanoma
MCF7 breast = test system: MCF7 breast
MDA-MB-435 = test system: MDA-MB-435
MOLT-4 leukemia = test system: MOLT-4 leukemia
RXF 393 renal = test system: RXF 393 renal
T-47D breast = test system: T-47D breast
TK-10 renal = test system: TK-10 renal
UO-31 renal = test system: UO-31 renal

In the case of `O=[N+]([O-])CC(SCc1ccccc1)c1ccc2c(c1)OCO2` (configuration not stated), the TGI (A498 renal) was 18.8 µM, the TGI (A549 NSCLC) was 21.8 µM and the TGI (COLO 205 colon) was 21.1 µM. It also gave a TGI (HS 578T breast) of 18.2 µM, a TGI (LOX IMVI melanoma) of 3.39 µM and a TGI (MCF7 breast) of 9.73 µM. The TGI (MDA-MB-435) was 7.93 µM, the TGI (MOLT-4 leukemia) was 21.1 µM and the TGI (RXF 393 renal) was 3.63 µM. It also gave a TGI (T-47D breast) of 47.7 µM, a TGI (TK-10 renal) of 25.2 µM and a TGI (UO-31 renal) of 22.2 µM.
